{
  "source": "patent US20090306093A1",
  "about": "“METHOD FOR TREATING PATIENT HAVING BENIGN PROSTATE HYPERPLASIA” (KAOHSIUNG MEDICAL UNIVERSITY, priority 2008, published 2009)",
  "key": {"[1]": {"system": "PKG", "experiment": "Western blot of PKG expression in rat prostate", "experimental": "Prostate strips were incubated with KMUP-1 (10-100 μM), sildenafil (100 μM) and zaprinast (100 μM) in 10 mL Tyrode solution aerated with 95% O2 and 5% CO2 for 1 hour. To examine the possible mechanisms of KMUP-1 action, the rat prostate were pretreated with ODQ (10 μM), SQ22536 (10 μM) and RP-8pCPT-cGMPs (10 μM) for 30 minutes prior to the addition of KMUP-1 (100 μM).\nIn order to examine the expression of Rho kinase in prostate, the prostate strips were pre-incubated with phenylephrine (10 μM) for 30 minutes. After a pre-treatment of phenylephrine, KMUP-1 (10-100 μM) and Y-27632 (10 μM) were further incubated for 30 minutes. After the incubation time, the prostate were extracted with protein extraction reagent (Pierce Biotechnology, Inc., Rockford, Ill., USA.). The PZ-HPV-7 cells were incubated with and without KMUP-1 (0.1-10 μM) at 30 minutes, 8 and 24 hours. They were then washed rapidly with ice-cold PBS, incubated with protein extraction reagent, and scraped from the plates. The prostate tissues and cells were sonicated three times for 10 second each time and centrifuged at 13,000 rpm at 4° C. for 30 minutes. The protein concentrations of supernatants were determined, using bovine serum albumin as the standard. Tissue and cell extract protein were then boiled at a ratio of 4:1 with sample buffer (100 mM Tris, pH 6.8, 20% glycerol, 4% SDS, and 0.2% bromphenol blue). 40-60 μg protein was used in this experiment. Electrophoresis was performed using 10 or 12% SDS-polyacrylamide gel electrophoresis and then transferred to nitrocellulose membranes (Millipore Corporation, Billerica, Mass.). The membrane was blocked with Tris-buffered saline (20 mM Tris and 137 mM NaCl, pH 7.6) containing 0.1% Tween 20 (TTBS) and 5% non-fat milk at room temperature for 1 hour, washed with TTBS, and then incubated overnight at 4° C. in the appropriate primary antibody of PKG (Santa Cruz, 1:200), sGCa1 (Santa Cruz, 1:200), PKA (Abcam, 1:1000), ROCK2 (Upstate, 1:1000), and PDE5A (BD Biosciences, 1:1000), p21 (Upstate, 1:1000). The membranes were washed in TTBS before being incubated with horseradish peroxidase-conjugated antibody against mouse, goat, or rabbit IgG (Santa Cruz, 1:1000) for 1 hour. The membrane was then washed in TTBS and developed with the enhanced chemiluminescence (ECL) for the detection of the specific antigen. The intensity of the bands was measured by densitometry."}, "[2]": {"target": "T1, a1D-adrenoceptor (Rattus norvegicus, UniProt P23944)", "T1 construct": "The submaxillary glands, spleen, and aorta of rats were separately homogenized; from tissue; host or cells: Wistar rat aorta membranes", "T1 sequence (P23944 1-561)": "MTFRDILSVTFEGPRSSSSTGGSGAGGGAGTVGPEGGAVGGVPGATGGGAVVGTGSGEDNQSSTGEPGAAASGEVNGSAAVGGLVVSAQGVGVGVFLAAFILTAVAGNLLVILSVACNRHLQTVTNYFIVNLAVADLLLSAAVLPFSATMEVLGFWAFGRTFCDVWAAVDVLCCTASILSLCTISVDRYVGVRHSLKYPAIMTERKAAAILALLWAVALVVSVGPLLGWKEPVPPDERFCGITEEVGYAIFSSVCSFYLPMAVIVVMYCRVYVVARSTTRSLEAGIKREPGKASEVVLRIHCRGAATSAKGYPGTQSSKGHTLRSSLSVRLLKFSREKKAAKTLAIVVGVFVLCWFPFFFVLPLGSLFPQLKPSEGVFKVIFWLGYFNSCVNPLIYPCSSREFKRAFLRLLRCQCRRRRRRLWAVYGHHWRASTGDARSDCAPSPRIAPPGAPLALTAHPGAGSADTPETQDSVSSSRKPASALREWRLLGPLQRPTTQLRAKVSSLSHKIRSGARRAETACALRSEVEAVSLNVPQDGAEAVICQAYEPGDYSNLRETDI", "experiment": "[3H]-prazosin competition binding, rat aorta membranes", "conditions": "read-out: Receptor Affinity (pKi) a1D (converted)", "experimental": "Wistar rats were obtained from National Laboratory Animal Breeding and Research Center (Taipei, Taiwan) and housed under a constant temperature and controlled illumination. The submaxillary glands, spleen, and aorta of rats were separately homogenized for 30 seconds with a Kinematica polytron in 20 volumes of ice-cold TE buffer (10 mM Tris HCl, 1 mM EDTA, 0.1 mM ascorbic acid, pH 7.4). The homogenate was filtered under pressure through muslin and the filtrate was centrifuged at 1,000 g for 10 minutes. The supernatant was centrifuged again at 10,000 g for 12 minutes at 4° C. The second supernatant was centrifuged at 30,000 g for 15 minutes at 4° C., and the final pellet was resuspended in the assay buffer (75 mM Tris HCl, 25 mM MgCl2, pH 7.4). Protein content was determined by Bradford's method.\n[^3H]-prazosin, KMUP-1 and membranes (200-300 μg) were incubated for 60 minutes at 25° C. with or without the addition of nonspecific binding agents, in a 75 mM Tris HCl buffer with 25 mM MgCl2, making a final volume of 500 μL. In this experiment, non-specific binding was defined by use of 10 μM phentolamine. […] Membrane-bound radioligand trapped in the filters was counted in a Beckman LS6500 scintillation system (Fullerton, Calif.) with an efficiency of 45%. In each experiment, nonspecifically bound radioligand agents were measured by incubating membrane protein. […]"}},
  "data": [
    {"smiles": "Cn1c(=O)c2c(ncn2CCN2CCN(c3ccccc3Cl)CC2)n(C)c1=O", "note": "[KMUP-1, 7-[2-[4-(2-Chlorobenzene)piperazinyl]ethyl]-1,3-dimethyl xanthine]", "values": [
      {"measurement": "expression of PKG", "setting": "[1]; KMUP-1 100 μM after pretreatment of RP-8-pCPT-cGMPs 10 μM for 30 minutes", "value": "significantly reduce"},
      {"measurement": "expression of PKG", "setting": "[1]; KMUP-1 10, 100 μM, sildenafil, zaprinast 100 μM", "value": "significantly induce"},
      {"measurement": "Ki", "setting": "[2]", "value": 0.0204, "unit": "µM"}
    ]}
  ]
}
